According to patent US10800792B2, “Inhibitors of Bruton's tyrosine kinase and method of their use” (JANSSEN PHARMACEUTICA NV, priority 2015, dated 2020):

Each compound was assayed against unphosphorylated-BTK kinase domain (UP-BTK), GST-tagged human BTK (389-659aa) (Homo sapiens (Human), UniProt Q06187) (assay: BTK kinase Lanthascreen binding assay). Settings: Lanthascreen tracer competition, 60 minutes incubation; pIC50 = negative log of the IC50 in molar.
Chain of unphosphorylated-BTK kinase domain (UP-BTK), GST-tagged human BTK (389-659aa) (Q06187 389-659): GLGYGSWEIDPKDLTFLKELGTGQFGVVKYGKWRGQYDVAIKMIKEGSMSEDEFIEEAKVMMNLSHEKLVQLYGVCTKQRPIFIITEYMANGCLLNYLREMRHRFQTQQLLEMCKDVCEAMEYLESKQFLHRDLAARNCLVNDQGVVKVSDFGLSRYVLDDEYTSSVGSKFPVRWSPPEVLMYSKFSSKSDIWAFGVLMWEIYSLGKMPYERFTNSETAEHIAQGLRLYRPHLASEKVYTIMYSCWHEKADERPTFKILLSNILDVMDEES
Outline: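 Compound binding to the unphosphorylated kinase domain was monitored by displacement of a fluorescently labelled tracer in a Lanthascreen format. Potency is given as pIC50, the negative log of the molar IC50.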
With `Cc1ccc(Oc2ccccc2)cc1N1C(=O)Nc2c(C(=O)N[C@@H]3CCCN(C(=O)/C(C#N)=C/C4CC4)C3)sc3nccc1c23` [Example 859, (R,E)-N-(1-(2-Cyano-3-cyclopropylacryloyl)piperidin-3-yl)-5-(2-methyl-5-phenoxyphenyl)-4-oxo-4,5-dihydro-3H-1-thia-3,5,8-triazaacenaphthylene-2-carboxamide] the “BTK_I_binding pIC50” value was 7.4.
In the case of `C=CC(=O)N1CCC[C@H](NC(=O)c2sc3nccc4c3c2NC(=O)N4c2ccc(Oc3ccccc3)cc2C)C1` [Example 863, (S)—N-(1-Acryloylpiperidin-3-yl)-5-(2-methyl-4-phenoxyphenyl)-4-oxo-4,5-dihydro-3H-1-thia-3,5,8-triazaacenaphthylene-2-carboxamide], the “BTK_I_binding pIC50” value is reported as 7.3.
With `N#C/C(=C\C1CC1)C(=O)N1CCCC(NC(=O)c2sc3nccc4c3c2NC(=O)N4c2cccc(Oc3ccccc3)c2)C1` (centres unmarked) [Example 851, (E)-N-(1-(2-Cyano-3-cyclopropylacryloyl)piperidin-3-yl)-4-oxo-5-(3-phenoxyphenyl)-4,5-dihydro-3H-1-thia-3,5,8-triazaacenaphthylene-2-carboxamide] the “BTK_I_binding pIC50” value was 7.5.
For `Cc1cc(OCC(C)C)ncc1N1C(=O)Nc2c(C(=O)N[C@@H]3CCCNC3)sc3nccc1c23` (single isomer, unassigned) [Example 759, (R)-5-(*S)-(6-Isobutoxy-4-methylpyridin-3-yl)-4-oxo-N-(piperidin-3-yl)-4,5-dihydro-3H-1-thia-3,5,8-triazaacenaphthylene-2-carboxamide], the “BTK_I_binding pIC50” value was 6.7.
`Cc1nc(Oc2ccccc2)ccc1N1C(=O)Nc2c(C(=O)N[C@@H]3CCCNC3)sc3nccc1c23` [Example 711, (R)-5-(2-methyl-6-phenoxypyridin-3-yl)-4-oxo-N-(piperidin-3-yl)-4,5-dihydro-3H-1-thia-3,5,8-triazaacenaphthylene-2-carboxamide] was tested, and the “BTK_I_binding pIC50” value was 6.6.
`C=CC(=O)N1CCC[C@@H](NC(=O)c2sc3nccc4c3c2NC(=O)N4c2ccnc(-c3ccccn3)c2)C1` [Example 709, (R)-5-([2,2′-Bipyridin]-4-yl)-N-(1-acryloylpiperidin-3-yl)-4-oxo-4,5-dihydro-3H-1-thia-3,5,8-triazaacenaphthylene-2-carboxamide] was tested, and the “BTK_I_binding pIC50” value was 6.7.
`Cc1cc(Oc2ccccc2)ccc1N1C(=O)Nc2c(C(=O)NC3CCNCC3)sc3nccc1c23` [Example 865, 5-(2-Methyl-4-phenoxyphenyl)-4-oxo-N-(piperidin-4-yl)-4,5-dihydro-3H-1-thia-3,5,8-triazaacenaphthylene-2-carboxamide] was tested, and the “BTK_I_binding pIC50” value was 7.3.
For `Cc1cc(Oc2cccc(COc3ccccc3C#N)c2)ccc1N1C(=O)Nc2c(C(=O)NC3CCN(C)CC3)sc3nccc1c23` [Example 855, 5-(4-(3-((2-Cyanophenoxy)methyl)phenoxy)-2-methylphenyl)-N-(1-methylpiperidin-4-yl)-4-oxo-4,5-dihydro-3H-1-thia-3,5,8-triazaacenaphthylene-2-carboxamide], the “BTK_I_binding pIC50” value was 7.5.
In the case of `O=C(N[C@@H]1CCCNC1)c1sc2nccc3c2c1NC(=O)N3c1cccc(C2CCOCC2)c1` [Example 738, (R)-4-Oxo-N-(piperidin-3-yl)-5-(3-(tetrahydro-2H-pyran-4-yl)phenyl)-4,5-dihydro-3H-1-thia-3,5,8-triazaacenaphthylene-2-carboxamide], the “BTK_I_binding pIC50” value is reported as under 6.
For `C=CC(=O)N1CC[C@@H](NC(=O)c2sc3nccc4c3c2NC(=O)N4c2ncc(Oc3ccccc3)cn2)C1` [Example 749, (R)—N-(1-Acryloylpyrrolidin-3-yl)-4-oxo-5-(5-phenoxypyrimidin-2-yl)-4,5-dihydro-3H-1-thia-3,5,8-triazaacenaphthylene-2-carboxamide], the “BTK_I_binding pIC50” value was 7.3.

Same assay, conditions: pIC50 = negative log of the IC50 in molar; 60 minutes incubation, 50 nM Tracer 236
For `C=CC(=O)N1C[C@H](O)C[C@@H](NC(=O)c2sc3nccc4c3c2NC(=O)N4c2ccc(Oc3ccccc3)cc2C)C1` (single isomer, unassigned) [Example 2, N-((3R,5S)-1-Acryloyl-5-hydroxypiperidin-3-yl)-5-(*S)-(2-methyl-4-phenoxyphenyl)-4-oxo-4,5-dihydro-3H-1-thia-3,5,8-triazaacenaphthylene-2-carboxamide], the “BTK_I_binding pIC50” value was 8.2.
For `Cc1cc(Oc2ccccc2)ccc1N1C(=O)Nc2c(C(=O)NC3CCCCN(C#N)C3)sc3nccc1c23` (centres unmarked) [Example 97, N-(1-Cyanoazepan-3-yl)-5-(2-methyl-4-phenoxyphenyl)-4-oxo-4,5-dihydro-3H-1-thia-3,5,8-triazaacenaphthylene-2-carboxamide], the “BTK_I_binding pIC50” value was 6.9.
`CN1CCC[C@@H](NC(=O)c2sc3nccc4c3c2NC(=O)N4c2ccc(Oc3ccccc3)cc2)C1` [Example 182, (R)—N-(1-Methylpiperidin-3-yl)-4-oxo-5-(4-phenoxyphenyl)-4,5-dihydro-3H-1-thia-3,5,8-triazaacenaphthylene-2-carboxamide] was tested, and the “BTK_I_binding pIC50” value was 6.7.
For `Cc1cc(OC2CCOCC2)ccc1N1C(=O)Nc2c(C(=O)N[C@@H]3CCCN(C(=O)/C(C#N)=C/C4CC4)C3)sc3nccc1c23` [Example 233, (R,E)-N-(1-(2-Cyano-3-cyclopropylacryloyl)piperidin-3-yl)-5-(2-methyl-4-((tetrahydro-2H-pyran-4-yl)oxy)phenyl)-4-oxo-4,5-dihydro-3H-1-thia-3,5,8-triazaacenaphthylene-2-carboxamide], the “BTK_I_binding pIC50” value was 7.2.
In the case of `Cc1cc(Oc2ccccc2)ccc1N1C(=O)Nc2c(C(=O)N[C@@H]3CCN(C(C)C)C3)sc3nccc1c23` [Example 118, (R)—N-(1-Isopropylpyrrolidin-3-yl)-5-(2-methyl-4-phenoxyphenyl)-4-oxo-4,5-dihydro-3H-1-thia-3,5,8-triazaacenaphthylene-2-carboxamide], the “BTK_I_binding pIC50” value is reported as 6.9.
`Cc1cc(OC(C)C)ccc1N1C(=O)Nc2c(C(=O)N[C@@H]3CCCN(C(=O)/C(C#N)=C/C4CC4)C3)sc3nccc1c23` [Example 102, (R,E)-N-(1-(2-Cyano-3-cyclopropylacryloyl)piperidin-3-yl)-5-(4-isopropoxy-2-methylphenyl)-4-oxo-4,5-dihydro-3H-1-thia-3,5,8-triazaacenaphthylene-2-carboxamide] was tested, and the “BTK_I_binding pIC50” value was 7.5.
For `Cc1ccccc1Oc1ccc(N2C(=O)Nc3c(C(=O)N[C@@H]4CCCN(C)C4)sc4nccc2c34)c(C)c1` [Example 148, (R)-5-(2-Methyl-4-(o-tolyloxy)phenyl)-N-(1-methylpiperidin-3-yl)-4-oxo-4,5-dihydro-3H-1-thia-3,5,8-triazaacenaphthylene-2-carboxamide], the “BTK_I_binding pIC50” value was 6.9.
`Cc1cc(Oc2ccccc2)ccc1N1C(=O)Nc2c(C(=O)NC3CCNC(C)C3)sc3nccc1c23` (centres unmarked) [Example 258, 5-(2-methyl-4-phenoxyphenyl)-N-(2-methylpiperidin-4-yl)-4-oxo-4,5-dihydro-3H-1-thia-3,5,8-triazaacenaphthylene-2-carboxamide] was tested, and the “BTK_I_binding pIC50” value was 6.5.

Same assay, conditions: unphosphorylated-BTK kinase domain, 50 nM Tracer 236, 60 minutes; pIC50 = negative log of the IC50 in molar
With `C=CC(=O)N1CCC[C@@H](NCc2sc3nccc4c3c2NC(=O)N4c2ccc(Oc3ccccc3)cc2C)C1` [Example 390, (R)-2-(((1-Acryloylpiperidin-3-yl)amino)methyl)-5-(2-methyl-4-phenoxyphenyl)-3H-1-thia-3,5,8-triazaacenaphthylen-4(5H)-one] the “BTK_I_binding pIC50” value was 6.9.
For `C=CC(=O)N1CC[C@@H](NC(=O)c2sc3nccc4c3c2NC(=O)N4c2ccc(C(C)C)cc2C)C1` [Example 445, (R)—N-(1-Acryloylpyrrolidin-3-yl)-5-(4-isopropyl-2-methylphenyl)-4-oxo-4,5-dihydro-3H-1-thia-3,5,8-triazaacenaphthylene-2-carboxamide], the “BTK_I_binding pIC50” value was 6.7.
`Cc1cc(Oc2ccccc2)ccc1N1C(=O)Nc2c(C(=O)N[C@@H]3CCCN(C(=O)/C(C#N)=C/C4(C)COC4)C3)sc3nccc1c23` (single isomer, unassigned) [Example 387, (R,E)-N-(1-(2-Cyano-3-(3-methyloxetan-3-yl)acryloyl)piperidin-3-yl)-5-(*R)-(2-methyl-4-phenoxyphenyl)-4-oxo-4,5-dihydro-3H-1-thia-3,5,8-triazaacenaphthylene-2-carboxamide] was tested, and the “BTK_I_binding pIC50” value was 7.8.
`Cc1cc(Oc2ccccc2)ccc1N1C(=O)Nc2c(C(=O)N[C@@H]3CNC(=O)C3)sc3nccc1c23` (single isomer, unassigned) [Example 470, (*S)-5-(*R)-(2-Methyl-4-phenoxyphenyl)-4-oxo-N-(5-oxopyrrolidin-3-yl)-4,5-dihydro-3H-1-thia-3,5,8-triazaacenaphthylene-2-carboxamide] was tested, and the “BTK_I_binding pIC50” value was 5.6.
For `CN[C@@H](C)C(=O)N1CCC[C@@H](NC(=O)c2sc3nccc4c3c2NC(=O)N4c2ccc(Oc3ccccc3)cc2C)C1` (single isomer, unassigned) [Example 524, 5-(*S)-(2-Methyl-4-phenoxyphenyl)-N—((R)-1-((S)-2-(methylamino)propanol)piperidin-3-yl)-4-oxo-4,5-dihydro-3H-1-thia-3,5,8-triazaacenaphthylene-2-carboxamide], the “BTK_I_binding pIC50” value was 7.8.
For `O=C(N[C@@H]1CCCNC1)c1sc2nccc3c2c1NC(=O)N3c1cccc(C(F)(F)F)c1` [Example 347, (R)-4-Oxo-N-(piperidin-3-yl)-5-(3-(trifluoromethyl)phenyl)-4,5-dihydro-3H-1-thia-3,5,8-triazaacenaphthylene-2-carboxamide], the “BTK_I_binding pIC50” value was under 5.
`O=C(N[C@@H]1CCCNC1)c1sc2nccc3c2c1NC(=O)N3c1cc2ccccc2s1` [Example 428, (R)-5-(Benzo[b]thiophen-2-yl)-4-oxo-N-(piperidin-3-yl)-4,5-dihydro-3H-1-thia-3,5,8-triazaacenaphthylene-2-carboxamide] was tested, and the “BTK_I_binding pIC50” value was under 5.
For `Cc1cc(Oc2ccccc2)ccc1N1C(=O)Nc2c(C(=O)N[C@@H]3CCN(C(=O)CN)C3)sc3nccc1c23` [Example 392, (R)—N-(1-(2-Aminoacetyl)pyrrolidin-3-yl)-5-(2-methyl-4-phenoxyphenyl)-4-oxo-4,5-dihydro-3H-1-thia-3,5,8-triazaacenaphthylene-2-carboxamide], the “BTK_I_binding pIC50” value was 7.4.
